Assay results as given in ChEMBL document CHEMBL6096740, “Discovery and Optimization of a Series of Novel Morpholine-Containing USP1 Inhibitors” (J Med Chem, 2025).

What was measured:
[1] = Metabolic stability in dog liver microsome assessed as half life preincubated for 5 mins followed by NADPH addition and measured after 120 mins by LC-MS/MS analysis; type: ADME, Canis lupus familiaris; details: liver microsomes, time 125 min
[2] = Metabolic stability in dog liver microsome assessed as intrinsic clearance preincubated for 5 mins followed by NADPH addition and measured after 120 mins by LC-MS/MS analysis; type: ADME, Canis lupus familiaris; details: liver microsomes, time 125 min, read-out: CLH
[3] = Metabolic stability in rat liver microsome assessed as half life preincubated for 5 mins followed by NADPH addition and measured after 120 mins by LC-MS/MS analysis; type: ADME; details: liver microsomes, time 125 min
[4] = Metabolic stability in human liver microsome assessed as intrinsic clearance preincubated for 5 mins followed by NADPH addition and measured after 120 mins by LC-MS/MS analysis; type: ADME; details: liver microsomes, time 125 min, read-out: CLH
[5] = Cmax in ICR mouse at 10 mg/kg, po measured up to 24 hrs; type: ADME, organism-based; details: in vivo
[6] = AUC (0 to infinity) in ICR mouse at 10 mg/kg, po measured up to 24 hrs; type: ADME, organism-based; details: in vivo
[7] = Metabolic stability in mouse liver microsome assessed as intrinsic clearance preincubated for 5 mins followed by NADPH addition and measured after 120 mins by LC-MS/MS analysis; type: ADME; details: liver microsomes, time 125 min, read-out: CLH
[8] = Metabolic stability in monkey liver microsome assessed as half life preincubated for 5 mins followed by NADPH addition and measured after 120 mins by LC-MS/MS analysis; type: ADME, Macaca mulatta; details: rhesus monkey, liver microsomes; time 125 min
[9] = Metabolic stability in human liver microsome assessed as half life preincubated for 5 mins followed by NADPH addition and measured after 120 mins by LC-MS/MS analysis; type: ADME; details: liver microsomes, time 125 min
[10] = Metabolic stability in mouse liver microsome assessed as half life preincubated for 5 mins followed by NADPH addition and measured after 120 mins by LC-MS/MS analysis; type: ADME; details: liver microsomes, time 125 min
[11] = Half life in ICR mouse at 10 mg/kg, po measured up to 24 hrs; type: ADME, organism-based; details: in vivo
[12] = Metabolic stability in monkey liver microsome assessed as intrinsic clearance preincubated for 5 mins followed by NADPH addition and measured after 120 mins by LC-MS/MS analysis; type: ADME, Macaca mulatta; details: rhesus monkey, liver microsomes; time 125 min; read-out: CLH
[13] = Tmax in ICR mouse at 10 mg/kg, po measured up to 24 hrs; type: ADME, organism-based; details: in vivo
[14] = Metabolic stability in rat liver microsome assessed as intrinsic clearance preincubated for 5 mins followed by NADPH addition and measured after 120 mins by LC-MS/MS analysis; type: ADME; details: liver microsomes, time 125 min, read-out: CLH
[15] = AUC (0 to t) in ICR mouse at 10 mg/kg, po measured up to 24 hrs; type: ADME, organism-based; details: in vivo

COc1ncnc(C2CC2)c1-c1nc(N2CCOC[C@H]2c2ccc(-c3nc(C(F)(F)F)cn3C(C)C)cc2)c2occc2n1
half-life [1]: 1.92 h
CLint scaled [2]: 30 mL/min/kg
half-life [3]: > 2 h
CLint scaled [4]: 20.3 mL/min/kg
Cmax [5]: 3510 ng/mL
AUC(0-inf) [6]: 14200 ng·h/mL
CLint scaled [7]: 90.8 mL/min/kg
half-life [8]: 0.997 h
half-life [9]: 1.43 h
half-life [10]: 1 h
half-life [11]: 1.92 h
CLint scaled [12]: 33.9 mL/min/kg
Tmax [13]: 0.25 h
CLint scaled [14]: < 20.7 mL/min/kg
AUC(0-t) at 24 h [15]: 13300 ng·h/mL
